# Data taken from patent publication US20200023000A1, “SYNERGISM OF GOS AND POLYFRUCTOSE” (N.V. Nutricia, priority 2004, published 2020).
# What was measured:
# [1] = test system: distal and proximal part of the colon; experiment: Contraction of isolated colon segments in organ bath; design: species or system Male Wistar rats; settings: for Tension of tonic contractions (FIG. 5): increasing concentrations up to 100 mM, effect higher in distal than proximal colon
# Source text: Male Wistar rats (CKP/Harlan, Wageningen/Horst, Netherlands) were housed under conditions of controlled temperature and light cycle and were provided free access to food pellets and water. Animals were anaesthetised by a mixture of N2O, O2 and isofluran, the abdomen was opened and the colon was removed immediately. The tissue was placed in Krebs-Henseleit buffer pH 7.4 (composition in mM: 118.0 NaCl, 4.75 KCl, 1.18 MgSO4, 2.5 CaCl2, 10 glucose, 1.17 KH2PO4 and 24.9 NaHCO3).
# The colon was cut into a distal and a proximal portion and was rinsed with Krebs-Henseleit buffer while gently squeezing out faecal content. To approximate in vivo conditions as closely as possible, 1 cm fully intact segments were attached longitudinally to an isometric force transducer (F30 type 372, HSE, Germany) in 20 ml water-jacketed (37° C.) organ baths (Schuler, HSE, Germany) containing Krebs-Henseleit buffer gassed continuously with 95% O2-5% CO2. The segments were gradually stretched to a resting tension of 1 g and allowed to equilibrate for 45 minutes with intermittent washings. The tensions of the segments in rest and in response to different stimuli were amplified by a transducer amplifier module (HSE, Germany) and recorded on a multi-pen recorder (Rikadenki, HSE, Germany).
# The segments were incubated with 40 mM KCl for 5 minutes and the contractile responses were measured. KCl was washed out by three consecutive washes at 5 minutes intervals. The segments were then incubated with increasing concentrations up to 100 mM of acetate or sodium-L-lactate. The acid solutions were prepared freshly in distilled water. NaOH was added to acetate to obtain a neutral pH. At the end of the incubation with a fatty acid, 40 mM KCl was added to determine whether the contractile response to KCl was influenced by the fatty acid. Before a new incubation the segments were allowed to equilibrate for 45 minutes in fresh Krebs-Henseleit buffer with intermittent washings.
# The experimental protocol consisted of two proximal and two distal sections of the colon. For data analysis (n=3), the contraction level induced by the stimuli was defined as the tension in g after 5 minutes incubation. Data obtained from identical segments (proximal or distal) were used to calculate a mean value and each segment served as its own control sample.
# [2] = test system: PGE1 and PGE2 response in CCD18 cells; experiment: Spontaneous PGE1 and PGE2 response in CCD18 cells; assay type: cell-based; settings: n=7
# Description: (§1) The effect of lactate and a SCFA mixture was analysed as described in Willemsen, L E M, Koetsier M A, van Deventer S J H, van Tol E A F (2003), Gut 52:1442-1447, with the following modifications: Lactate and a mixture of acetate/propionate/butyrate 90/5/5 was tested. For the mucus production experiments a co-culture of CCD18 and T84 cells was used, whereas for the PGE1 and PGE2 production experiments a monoculture of CCD18 cells was used.
# [3] = test system: muc-2 expression in a CCD18/T84 co-culture; experiment: muc-2 expression in CCD18/T84 co-culture; assay type: cell-based
# Description: as §1
# [4] = proximal part of the colon, 25 mM
# [5] = proximal part of the colon, concentrations higher than 25 mM
SMILES,Number of spontaneous (phasic) contractions ([1]; distal part of the colon),Tension of tonic contractions (FIG. 5) [1],Number of spontaneous (phasic) contractions ([1]; proximal part of the colon),"Tonic contractions as a response to KCl [1, 4]","Tonic contractions as a response to KCl [1, 5]",Increase of PGE1 (FIG. 4b) ([2]; at 100 μM),"Increase of PGE2 (FIG. 4b) ([2]; at 250 μM, P<0.05)","Increase of muc-2 expression (FIG. 4a) ([3]; at 0.5, 1 and 4 mM, n=6)","MUC-2 expression, dose dependence (FIG. 4A) ([3]; co-culture of CCD18 and T84 cells)"
C[C@H](O)C(=O)[O-].[Na+] [sodium-L-lactate],no effects are observed,decrease the tension of tonic contractions,decrease,comparable in the presence or absence,significant relaxation,–,–,–,–
C[C@H](O)C(=O)O [L-lactate],–,–,–,–,–,statistically significant,statistically significant,statistically significant,dose dependently induces MUC-2 expression
"CC(=O)[O-].[Na+] [sodium acetate, reference compound]",no effects are observed,decrease the tension of tonic contractions,decrease,comparable in the presence or absence,significant relaxation,–,–,–,–
